Experimental data as given in patent US10660932B2, “Drug combinations and methods to stimulate embryonic-like regeneration to treat diabetes and other diseases” (UNIVERSITY OF SOUTHERN CALIFORNIA, priority 2016, dated 2020).

How the values were obtained:
Assay type in all cases: cell-based
[1] = tested on: human pancreatic islets from healthy subjects (HI); assay: Human pancreatic islet treatments and qPCR, healthy islets (HI); conditions: cells from normal human subjects, STS medium with IGF-1 40 ng/ml
Experimental: (§1) To investigate how the fasting mimicking conditions affect Ngn3 expression and β-cell functions in human pancreatic cells, we performed ex vivo experiments using primary human pancreatic islets (FIG. 6A). Briefly, the pancreatic islets from healthy and T1D subjects (HI and T1DI, respectively) were cultured according to the manufacturer's instructions. The cultured islets were then treated with serum from subjects enrolled in a clinical trial testing the effects of a low protein and low calorie FMD lasting 5 days (NCT02158897)^17. Serum samples were collected at baseline and at day 5 of the fasting mimicking diet in 5 subjects.
(§2) In cells from normal human subjects, these effects were reversed by IGF-1 treatment (FIG. 6G). […]
(§3) Cells were treated for 36 h with: Standard medium: Celprogen, M35002-045 for healthy islets and M35001-035 for T1D islets). […] Total RNA was extracted using RNeasy Mini kit (Qiagen) according to the manufacturer's instructions and quantified with the use of the Nanodrop system (Thermo Scientific, Waltham, Mass., USA). […] The expression level were analyzed by quantitative real-time polymerase chain reaction (PCR) on a Roche LightCycler 480II . Gene expression was quantified using the comparative Ct method.

[2] = tested on: human pancreatic islets from T1D subjects (T1DI); assay: Human pancreatic islet treatments and qPCR, T1D islets (T1DI)
Experimental: as §1, §2, §3

PKA = PKA activity in human pancreatic islets; conditions: STS medium with IGF-1 40 ng/ml
Experimental: It also dampened the activity of mTOR, which is a key mediator of amino acid signaling (FIG. 6I). To further investigate the role of these nutrient sensing signaling pathways in regulating the expression of lineage markers (i.e. Sox2 and Ngn3), we tested the role of the Tor-S6K and PKA pathways, which function downstream of IGF-1, in the reprogramming of pancreatic cells. Human pancreatic islets cultured in standard medium were treated with rapamycin, which inhibits mTOR, and H89, which inhibits PKA. mTOR and PKA were implicated by our group and others in the regeneration of other cell types (Cheng et al., 2014; Yilmaz et al., 2012).
as §3
PKA activity was measured using the PKA kinase activity kit (Enzo Life Science, Inc. Farmingdale, N.Y., USA) according to manufacturer instructions.

| Molecule | effect on STS-induced expression of Sox2, Ngn3 and insulin [1] | effect on STS-increased insulin and Sox 2 gene expression ([2]; human T1D cells, STS medium with IGF-1 40 ng/ml) | effect on STS-reduced PKA activity (PKA; T1D human islets) | effect on STS-reduced PKA activity (PKA; healthy human islets) | expression of lineage markers Sox2 and Ngn3 ([2]; T1DI in standard medium, 36 h, Rapamycin 20 nM, H89 20 uM) |
| --- | --- | --- | --- | --- | --- |
| IGF-1: IGF1 (40 ng/ml) (ProSpec), growth factor added to STS medium | reversed | reversed | reversed | reversed | – |
| O=S(=O)(NCCNC/C=C/c1ccc(Br)cc1)c1cccc2cnccc12 [H89, reference compound] | – | – | – | – | not induced |
